This note sets out measurements from patent US12071425B2 (Genentech, Inc., priority 2018, dated 2024).

Counter-ions that a name gives are not always drawn.

kinase domain of IRE1 alpha (His-tagged kinase dead construct KR, AA G547-L977, D688N), sequence (O75460 547-977 D688N): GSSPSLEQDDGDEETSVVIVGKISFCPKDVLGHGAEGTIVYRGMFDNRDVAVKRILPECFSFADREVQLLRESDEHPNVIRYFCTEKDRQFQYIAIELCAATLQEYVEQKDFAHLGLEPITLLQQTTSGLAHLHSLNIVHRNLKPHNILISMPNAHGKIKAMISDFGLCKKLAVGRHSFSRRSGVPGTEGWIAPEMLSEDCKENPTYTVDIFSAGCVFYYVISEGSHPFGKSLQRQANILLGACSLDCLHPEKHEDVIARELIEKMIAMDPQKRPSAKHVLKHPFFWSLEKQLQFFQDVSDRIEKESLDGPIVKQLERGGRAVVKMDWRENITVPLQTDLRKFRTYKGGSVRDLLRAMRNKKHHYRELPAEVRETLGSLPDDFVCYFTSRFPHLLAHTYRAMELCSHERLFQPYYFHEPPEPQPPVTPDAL

In the assay the target is kinase domain of IRE1 alpha (His-tagged kinase dead construct KR, AA G547-L977, D688N) (Homo sapiens (Human), UniProt O75460, D688N). Kind of assay: IRE1α TR-FRET competition binding assay. Conditions: competition with Kinase Tracer 236, 0.1 μM; one hour at room temperature. In short, it runs like this:
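Sf9-expressed kinase-dead KR construct (0.006 μM final) pre-incubated 1 h at 4° C with Eu anti-His antibody (0.002 μM) in HEPES pH 7.5/MgCl2/Brij/DTT buffer; Kinase Tracer 236 (ATP-competitive probe, 0.1 μM final) added with compound. 1 h at room temperature; tracer displacement read by TR-FRET (665/615 nm).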
Compound `O=S(=O)(Cc1ccccc1)Nc1c(F)cc(Oc2ncccc2-c2ccnc(NC3CNCC(CF)C3)n2)c(F)c1F` (single isomer, unassigned) [Compound 278, 1-Phenyl-N-(2,3,6-trifluoro-4-((3-(2-((5-(fluoromethyl)piperidin-3-yl)amino)pyrimidin-4-yl)pyridin-2-yl)oxy)phenyl)methanesulfonamide] returned an IC50 of 0.78 nM.
To `C[C@@]1(F)CNC[C@@H](Nc2nccc(-c3cccnc3Oc3cc(F)c(NS(=O)(=O)Cc4ccccc4)c(F)c3F)n2)C1` [Compound 190, 1-Phenyl-N-(2,3,6-trifluoro-4-((3-(2-(((3S,5S)-5-fluoro-5-methyl-3-piperidyl)amino)pyrimidin-4-yl)-2-pyridyl)oxy)phenyl)methanesulfonamide] belongs 4.7 nM; to `CC(C)(C#N)CCS(=O)(=O)Nc1ccc(Oc2ncccc2-c2ccnc(N[C@H]3CCCNC3)n2)c(F)c1F` [Compound 210, (S)-3-cyano-N-(2,3-difluoro-4-((3-(2-(piperidin-3-ylamino)pyrimidin-4-yl)pyridin-2-yl)oxy)phenyl)-3-methylbutane-1-sulfonamide], 23 nM; to `C[C@]1(F)CNC[C@@H](Nc2nccc(-c3cccnc3Oc3ccc(NS(=O)(=O)Cc4ccccc4)c(F)c3F)n2)C1` [Compound 162, N-(2,3-difluoro-4-((3-(2-(((3S,5R)-5-fluoro-5-methylpiperidin-3-yl)amino)pyrimidin-4-yl)pyridin-2-yl)oxy)phenyl)-1-phenylmethanesulfonamide], 6.9 nM.
Compound `Cc1cc(Oc2ncccc2-c2ccnc(N[C@H]3CCCNC3)n2)c(C)cc1NS(=O)(=O)c1ccccc1Cl` [Compound 125, (S)-2-chloro-N-(2,5-dimethyl-4-((3-(2-(piperidin-3-ylamino)pyrimidin-4-yl)pyridin-2-yl)oxy)phenyl)benzenesulfonamide] displayed an IC50 of 27 nM.
To `COc1ccc(CS(=O)(=O)Nc2c(F)cc(Oc3ncccc3-c3ccnc(N[C@@H]4CNC[C@@](C)(F)C4)n3)c(F)c2F)cc1` [Compound 304, 1-(4-Methoxyphenyl)-N-(2,3,6-trifluoro-4-((3-(2-(((3S,5S)-5-fluoro-5-methylpiperidin-3-yl)amino)pyrimidin-4-yl)pyridin-2-yl)oxy)phenyl)methanesulfonamide] belongs 0.23 nM.
To `CCN(C)S(=O)(=O)Nc1c(F)cc(Oc2ncccc2-c2ccnc(N[C@@H]3CNC[C@@H](F)C3)n2)c(F)c1F` [Compound 269, 4-(2-(4-((Ethyl(methyl)sulfamoyl)amino)-2,3,5-trifluoro-phenoxy)-3-pyridyl)-2-(((3S,5S)-5-fluoro-3-piperidyl)amino)pyrimidine] belongs 1.1 nM; to `Cc1cc(CS(=O)(=O)Nc2c(F)cc(Oc3ncccc3-c3ccnc(N[C@@H]4CNC[C@@H](F)C4)n3)c(F)c2F)no1` [Compound 204, 1-(5-methylisoxazol-3-yl)-N-(2,3,6-trifluoro-4-((3-(2-(((3S,5S)-5-fluoropiperidin-3-yl)amino)pyrimidin-4-yl)pyridin-2-yl)oxy)phenyl)methanesulfonamide], 4.1 nM.
To `Cc1c(Oc2ncccc2-c2ccnc(N[C@H]3CCCNC3)n2)cc(F)c(NS(=O)(=O)Cc2ccccc2)c1C` [Compound 175, (S)-N-(6-fluoro-2,3-dimethyl-4-((3-(2-(piperidin-3-ylamino)pyrimidin-4-yl)pyridin-2-yl)oxy)phenyl)-1-phenylmethanesulfonamide] belongs 5.2 nM; to `O=S(=O)(Cc1ccccc1)Nc1c(F)cc(Oc2ncccc2-c2ccnc(NC3CNCC4(C3)CC4(F)F)n2)c(F)c1F` (single isomer, unassigned) [Compound 299, N-(4-((3-(2-((1,1-Difluoro-5-azaspiro[2.5]octan-7-yl)amino)pyrimidin-4-yl)pyridin-2-yl)oxy)-2,3,6-trifluorophenyl)-1-phenylmethanesulfonamide], 0.38 nM; to `CCCS(=O)(=O)Nc1ccc(F)c(Oc2ncccc2-c2ccnc(N[C@H]3CCCNC3)n2)c1` [Compound 127, (S)-N-(4-fluoro-3-((3-(2-(piperidin-3-ylamino)pyrimidin-4-yl)pyridin-2-yl)oxy)phenyl)propane-1-sulfonamide], 370 nM.
Regarding `CNCCNc1nccc(-c2cccnc2Oc2ccc(NS(=O)(=O)Cc3ccccc3)c(F)c2F)n1` [Compound 172, N-(2,3-difluoro-4-((3-(2-(2-(methylamino)ethylamino)pyrimidin-4-yl)-2-pyridyl)oxy)phenyl)-1-phenyl-methanesulfonamide], the IC50 turned out to be 42 nM.
To `CCCCS(=O)(=O)Nc1cc(C)c(Oc2ncccc2-c2ccnc(N[C@H]3CCCNC3)n2)c(F)c1` [Compound 115, (S)-N-(3-fluoro-5-methyl-4-((3-(2-(piperidin-3-ylamino)pyrimidin-4-yl)pyridin-2-yl)oxy)phenyl)butane-1-sulfonamide hydrochloride] belongs 30 nM; to `C[C@@]1(F)CNC[C@@H](Nc2nccc(-c3cccnc3Oc3cc(F)c(NS(=O)(=O)Cc4ccccc4F)c(F)c3F)n2)C1` [Compound 275, 1-(2-Fluorophenyl)-N-(2,3,6-trifluoro-4-((3-(2-(((3S,5S)-5-fluoro-5-methylpiperidin-3-yl)amino)pyrimidin-4-yl)pyridin-2-yl)oxy)phenyl)methanesulfonamide], 0.23 nM.
In the case of `O=S(=O)(Cc1ccc(F)cc1Cl)Nc1c(F)cc(Oc2ncccc2-c2ccnc(N[C@@H]3CNC[C@@H](F)C3)n2)c(F)c1F` [Compound 365, 1-(2-Chloro-4-fluoro-phenyl)-N-[2,3,6-trifluoro-4-[[3-[2-[[(3S,5S)-5-fluoro-3-piperidyl]amino]pyrimidin-4-yl]-2-pyridyl]oxy]phenyl]methanesulfonamide] it was 0.7 nM.
In the case of `O=S(=O)(Cc1ccc(C2CC2)cc1)Nc1c(F)cc(Oc2ncccc2-c2ccnc(N[C@@H]3CNC[C@@H](F)C3)n2)c(F)c1F` [Compound 315, 1-(4-Cyclopropylphenyl)-N-(2,3,6-trifluoro-4-((3-(2-(((3S,5S)-5-fluoropiperidin-3-yl)amino)pyrimidin-4-yl)pyridin-2-yl)oxy)phenyl)methanesulfonamide] it was 0.23 nM; in that of `C[C@H]1CNC[C@@H](Nc2nccc(-c3cccnc3Oc3ccc(NS(=O)(=O)Cc4ccccc4)c(F)c3F)n2)C1` [Compound 111, N-(2,3-difluoro-4-((3-(2-(((3S,5R)-5-methylpiperidin-3-yl)amino)pyrimidin-4-yl)pyridin-2-yl)oxy)phenyl)-1-phenylmethanesulfonamide hydrochloride], 4.4 nM; in that of `O=S(=O)(CC12CCC(CC1)C2)Nc1c(F)cc(Oc2ncccc2-c2ccnc(N[C@@H]3CNC[C@@H](F)C3)n2)c(F)c1F` [Compound 376, 1-(Bicyclo[2.2.1]heptan-1-yl)N-(2,3,6-trifluoro-4-((3-(2-(((3S,5S)-5-fluoropiperidin-3-yl)amino)pyrimidin-4-yl)pyridin-2-yl)oxy)phenyl)methanesulfonamide], 0.2 nM.
Turning to `COCC1CNCC(Nc2nccc(-c3cccnc3Oc3cc(F)c(NS(=O)(=O)Cc4ccccc4)c(F)c3F)n2)C1` (single isomer, unassigned) [Compound 331, 1-Phenyl-N-(2,3,6-trifluoro-4-((3-(2-((5-(methoxymethyl)piperidin-3-yl)amino)pyrimidin-4-yl)pyridin-2-yl)oxy)phenyl)methanesulfonamide], the IC50 worked out at 0.82 nM.
As for `O=S(=O)(Nc1cccc(Oc2ncccc2-c2ccnc(N[C@H]3CCCNC3)n2)c1F)c1ccccc1Cl` [Compound 141, (S)-2-Chloro-N-(2-fluoro-3-((3-(2-(piperidin-3-ylamino)pyrimidin-4-yl)pyridin-2-yl)oxy)phenyl)benzenesulfonamide hydrochloride], the IC50 was 17 nM.
To `C[C@@H](c1ccccc1)S(=O)(=O)Nc1c(F)cc(Oc2ncccc2-c2ccnc(N[C@@H]3CNC[C@@H](F)C3)n2)c(F)c1F` (single isomer, unassigned) [Compound 387, (*S)-1-Phenyl-N-(2,3,6-trifluoro-4-((3-(2-(((3S,5S)-5-fluoropiperidin-3-yl)amino)pyrimidin-4-yl)pyridin-2-yl)oxy)phenyl)ethane-1-sulfonamide] belongs 0.2 nM; to `O=S(=O)(Nc1ccc(Oc2ncccc2-c2ccnc(N[C@H]3CCCNC3)n2)c(F)c1F)c1ccccc1` [Compound 218, (S)-N-(2,3-difluoro-4-((3-(2-(piperidin-3-ylamino)pyrimidin-4-yl)pyridin-2-yl)oxy)phenyl)benzenesulfonamide], 16 nM; to `CC(C)(F)C1CNCC(Nc2nccc(-c3cccnc3Oc3cc(F)c(NS(=O)(=O)Cc4ccccc4)c(F)c3F)n2)C1` (single isomer, unassigned) [Compound 334, 1-Phenyl-N-(2,3,6-trifluoro-4-((3-(2-((5-(2-fluoropropan-2-yl)piperidin-3-yl)amino)pyrimidin-4-yl)pyridin-2-yl)oxy)phenyl)methanesulfonamide hydrochloride], 9.8 nM.
`O=S(=O)(Cc1ccccc1)Nc1ccc(Cl)c(Oc2ncccc2-c2ccnc(N[C@H]3CCCNC3)n2)c1F` [Compound 138, (S)—N-(4-Chloro-2-fluoro-3-((3-(2-(piperidin-3-ylamino)pyrimidin-4-yl)pyridin-2-yl)oxy)phenyl)-1-phenylmethanesulfonamide]: the IC50 was found to be 15 nM.
In the case of `CCC(F)(F)CS(=O)(=O)Nc1c(F)cc(Oc2ncccc2-c2ccnc(N[C@@H]3CNC[C@@H](F)C3)n2)c(F)c1F` [Compound 189, 2.2-difluoro-N-(2,3,6-trifluoro-4-((3-(2-(((3S,5S)-5-fluoro-3-piperidyl)amino)pyrimidin-4-yl)-2-pyridyl)oxy)phenyl)butane-1-sulfonamide] it was 5 nM.

The IC50 is the point on the concentration scale where inhibition reaches its midpoint.
